# Reference: patent publication US4853221A, “Method for treating non-small cell lung cancer, head and neck cancers and breast cancer” (Warner-Lambert Company, priority 1987, dated 1989)
# What was measured:
# [1] = system: Lewis lung carcinoma; test: Antitumor activity against Lewis lung carcinoma in mice; format: in vivo, mouse; settings: optimal dose 40 mg/kg (dose range 40-1.25), IV daily, Days 1-9
# Description: (§1) The growth inhibition properties of 5-methyl-6-[[(3,4,5-trimethoxyphenyl)amino]methyl]-2,4-quinazolinediamine (trimetrexate) against several transplanted murine tumors were evaluated employing the antitumor screening program of the Drug Evaluation Branch of the National Cancer Institute. The protocols for these tests is described in Cancer Chemotherapy Reports, 3: 1-103 (1972). The dosing schedules are results from these tests appear in Table IV.
# (§2) Percent increase in median life span (% ILS) values appearing in the tables were calculated from the formula; 100×(median life span in days of treated mice minus median life span in days of untreated mice) divided by median life span in days of untreated control mice. That is, % ILS=[100×(T-C)]/C. % T/C and %ILS are directly interconvertible by the formula % ILS=% T/C -100.
# (§3) In all of the mouse tumor studies described above, routine controls consisted of matching ten normal mice (with no tumors) to each tumor-bearing treatment group and injecting them with the same drug at the same dosages, schedules, days of administration, and drug route as the tumor-bearing mice. In this way, drug-induced toxicity (lethality and weight loss) could be clearly separated from the effects of the drug on the tumors.
# [2] = system: Melanoma; test: Human tumor cloning system, melanoma; format: cell-based; settings: one hour, 5 specimens
# Description: (§4) The activity of trimetrexate was compared with that of methotrexate in tests with a human tumor cloning system (Latham, et al., Proc. Am. Assoc. Cancer Res., 24: 278 (1983)). The data from these tests appear in Table III were the activities are expressed as the numbers of tumors with 50% or greater reduction in tumor colony forming units after one hour exposure to the drug.
# [3] = system: head and neck (squamous) cancers; test: Phase I clinical trials, head and neck (squamous) cancers; format: in vivo, human; settings: single agent
# Description: Several Phase I clinical trials employing trimetrexate in human patients were carried out. In one study, 36 patients were treated with trimetrexate as a single agent at daily doses of 0.5 mg/m^2 /day to 12 mg/m^2 /day administered intravenously for five days.
# In additional Phase I clinical studies, patients were administered trimetrexate with single intravenous doses ranging between 5 and 450 mg/m^2 and with weekly doses of slightly greater than 100 mg/m^2.
# [4] = system: P388 murine leukemia; test: Schedule dependence against P388 murine leukemia; format: in vivo, mouse
# Description: In the L1210, P388, and B-16 melanoma models, results are expressed as a percentage of median control survival time. Percentage of increase in survival time and/or cures (30 day survivors) were the parameters used to measure the effectiveness of the agents.
# as §2
# L1210 Leukemic Cells (10^5 /mouse) and P388 leukemic cells (10^6 /mouse)were in the ascites form and were transferred to BD2F1 or CD2F1 mice by intraperitoneal (ip) injection of 0.1 ml of cells taken from animals bearing 6- to 7-day old tumors. Leukemic cells were injected ip one day prior to the start of treatment.
# The dose schedule dependence of trimetrexate was tested against transplanted P388 leukemia using the protocol outlined above.
# [5] = system: Colon 26; test: Antitumor activity against colon adenocarcinoma 26 in mice; format: in vivo, mouse; settings: for Life Span % ILS / Life Span % T/C: ip every 4 days, Days 1-5
# Description: as §1, §2
# Colon adenocarcinoma Nos. 26 and 38. Colon adenocarcinoma 26 was propagated in Balb/cj mice for 12 to 15 days. After this time, 0.5 ml of a 1% tumor brei, prepared from several excised subcutaneously passaged tumors, was implanted intraperitoneally into CDF1 mice. Animals were treated with drug ip on Days 1 and 5 following tumor implantation. The median survival time of the treated animals was determined and expressed as a percentage of the median survival time of untreated control animals.
# as §3
# [6] = system: Miscell. tumors; test: Human tumor cloning system, miscellaneous tumors; format: cell-based; settings: one hour, 10 specimens
# Description: as §4
# [7] = system: Colon 38; test: Antitumor activity against colon adenocarcinoma 38 in mice; format: in vivo, mouse
# [8] = system: Breast tumor; test: Human tumor cloning system, breast tumors; format: cell-based; settings: one hour, 10 specimens
# Description: as §4
# [9] = system: cells in culture; test: Concentration reached in cells in culture; format: cell-based; settings: compared with methotrexate
# [10] = system: human tumor cultures; test: Human tumor cloning system, all tumors; format: cell-based; settings: for Number of Tumors with 50% or Greater Decrease in Tumor Colony Forming Units: Totals, one hour, 54 specimens
# Description: as §4
# [11] = system: T-Cell 8402; test: Inhibition of T-Cell 8402 growth in vitro; format: cell-based, human; settings: 48 h; Human T-Cell 8402; read-out: ED50 (the source's name)
# Description: Logarithmically growing L1210 cells (approximately 3×10^5 cells/ml) were diluted with Fischer's medium (containing 10% horse serum) to an approximate concentration of 5×10^4 cells/ml. Cells were planted in duplicate into 15 ml culture tubes containing either no drug or various amounts of drug, and incubated for 48 hours at 37° C. before being counted.
# Trimetrexate was also evaluated in a similar manner side-by-side with methotrexate for its effect on the growth of three additional murine cell lines (L5178Y, Sarcoma-180, and Walkler-256) and three human cell lines (acute myelogenous leukemia K-562, T-cell 8402, and B-cell 8392), propagated in vitro.
# [12] = 13 mg/kg, every 3 hours, daily, Days 1, 5, and 9
# [13] = 20 mg/kg, every 3 hours, daily, Days 1, 5, and 9
# [14] = 30 mg/kg, every 3 hours, daily, Days 1, 5, and 9
# [15] = 45 mg/kg, every 3 hours, daily, Days 1, 5, and 9
# [16] = optimal dose 30 mg/kg (dose range 120-3.75)
# [17] = optimal dose 60 mg/kg (dose range 120-3.75)
structure (smiles),measurement,setting,value
"COc1cc(NCc2ccc3nc(N)nc(N)c3c2C)cc(OC)c1OC [Trimetrexate, 5-methyl-6-[[(3,4,5-trimethoxyphenyl)amino]methyl]-2,4-quinazolinediamine]",Life Span % T/C,[1],Negligible
same,Number of Tumors with 50% or Greater Decrease in Tumor Colony Forming Units,[2]; trimetrexate 0.1 μg/ml,2
same,Number of Tumors with 50% or Greater Decrease in Tumor Colony Forming Units,[2]; trimetrexate 1.0 μg/ml,3
same,patients with favorable responses,[3],two
same,% T/C,[4]; [12],185%
same,Weight Change,[4]; [12],1.0 Grams
same,% T/C,[4]; [13],194%
same,Weight Change,[4]; [13],-0.2 Grams
same,% T/C,"[4]; 22 mg/kg, Days 1 and 9",164%
same,Weight Change,"[4]; 22 mg/kg, Days 1 and 9",1.8 Grams
same,% T/C,[4]; [14],203%
same,Weight Change,[4]; [14],0.6 Grams
same,% T/C,"[4]; 33 mg/kg, Days 1 and 9",169%
same,Weight Change,"[4]; 33 mg/kg, Days 1 and 9",0.8 Grams
same,% T/C,[4]; [15],212%
same,Weight Change,[4]; [15],-1.7 Grams
same,% T/C,"[4]; 50 mg/kg, Days 1 and 9",166%
same,Weight Change,"[4]; 50 mg/kg, Days 1 and 9",0.3 Grams
same,% T/C,"[4]; 53 mg/kg, Day 1 only",100%
same,% T/C,"[4]; 53 mg/kg, Days 1, 5, and 9",116%
same,Weight Change,"[4]; 53 mg/kg, Days 1, 5, and 9",2.9 Grams
same,% T/C,"[4]; 75 mg/kg, Days 1 and 9",181%
same,Weight Change,"[4]; 75 mg/kg, Days 1 and 9",-2.6 Grams
same,% T/C,"[4]; 80 mg/kg, Day 1 only",104%
same,% T/C,"[4]; 80 mg/kg, Days 1, 5, and 9",119%
same,Weight Change,"[4]; 80 mg/kg, Days 1, 5, and 9",1.3 Grams
same,% T/C,"[4]; 120 mg/kg, Day 1 only",113%
same,% T/C,"[4]; 120 mg/kg, Days 1, 5, and 9",154%
same,Weight Change,"[4]; 120 mg/kg, Days 1, 5, and 9",-2.5 Grams
same,% T/C,"[4]; 180 mg/kg, Day 1 only",12%
same,% T/C,"[4]; 180 mg/kg, Days 1, 5, and 9",9%
same,optimal dose regimen,"[4]; every three hours on Days 1, 5, and 9, minimal weight loss and maximum life span response",about 30 mg/kg/injection
same,antitumor activity,"[5]; mouse, in vivo",good activity
same,Life Span % ILS,[5]; [16],56%
same,Life Span % T/C,[5]; [16],156%
same,Life Span % ILS,[5]; [17],115%
same,Life Span % T/C,[5]; [17],215%
same,Number of Tumors with 50% or Greater Decrease in Tumor Colony Forming Units,[6]; trimetrexate 0.1 μg/ml,2
same,Number of Tumors with 50% or Greater Decrease in Tumor Colony Forming Units,[6]; trimetrexate 1.0 μg/ml,1
same,antitumor activity,"[7]; mouse, in vivo",good activity
same,Tumor Weight Inhibition % TWI,"[7]; optimal dose 60 mg/kg (dose range 60-1.88), Sc every 7 days, Days 2-9",85%
same,Number of Tumors with 50% or Greater Decrease in Tumor Colony Forming Units,[8]; trimetrexate 0.1 μg/ml,0
same,Number of Tumors with 50% or Greater Decrease in Tumor Colony Forming Units,[8]; trimetrexate 1.0 μg/ml,2
same,concentration reached in cells in culture,[9],higher concentration than methotrexate
same,Number of Tumors with 50% or Greater Decrease in Tumor Colony Forming Units,[10]; trimetrexate 0.1 μg/ml,11
same,Number of Tumors with 50% or Greater Decrease in Tumor Colony Forming Units,[10]; trimetrexate 1.0 μg/ml,13
same,human tumor cultures sensitive to trimetrexate and resistant to methotrexate,"[10]; trimetrexate 0.1 μg/ml, methotrexate 0.3 μg/ml, 8/54",15%
same,IC50,[11],10 nM
